Measurements published in PubChem BioAssay AID248 (DTP/NCI, 2004).
Values joined by “and” are separate entries in the source; they are usually repeats but may differ in a detail not shown here. Equal entries are not always repeated. Toxic doses and inconclusive results are not listed. No stated cut-off is given here; in the data, active means T/C of 150% or more; inactive means T/C below 125%.

Test system: L1210 leukemia ip in BDF1 mice, survival T/C
Assay: NCI In Vivo Anticancer Drug Screen. Data for tumor model L1210 Leukemia (intraperitoneal) in B6D2F1 (BDF1) mice
Details: endpoint: mean survival time, higher = longer survival
Outline: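 Tumor cells were implanted, animals were treated, and survival was followed. The result divides the treated measurement by the vehicle-control measurement.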

[1] = dose: 100.0 mg/kg/injection, schedule: Q01DX009 (ip), vehicle: Klucel (hydroxypropylcellulose) (HPC)
[2] = dose: 100.0 mg/kg/injection, schedule: Q04DX003 (ip), vehicle: Klucel (hydroxypropylcellulose) (HPC)
[3] = dose: 200.0 mg/kg/injection, schedule: Q01DX009 (ip), vehicle: Klucel (hydroxypropylcellulose) (HPC)
[4] = dose: 200.0 mg/kg/injection, schedule: Q04DX003 (ip), vehicle: Klucel (hydroxypropylcellulose) (HPC)
[5] = dose: 400.0 mg/kg/injection, schedule: Q04DX003 (ip), vehicle: Klucel (hydroxypropylcellulose) (HPC)
[6] = dose: 100.0 mg/kg/injection, schedule: Q04DX002 (ip), vehicle: Klucel (hydroxypropylcellulose) (HPC)
[7] = dose: 200.0 mg/kg/injection, schedule: Q04DX002 (ip), vehicle: Klucel (hydroxypropylcellulose) (HPC)
[8] = dose: 400.0 mg/kg/injection, schedule: Q04DX002 (ip), vehicle: Klucel (hydroxypropylcellulose) (HPC)
[9] = dose: 100.0 mg/kg/injection, schedule: Q04DX003 (ip), vehicle: saline with Tween-80
[10] = dose: 200.0 mg/kg/injection, schedule: Q04DX003 (ip), vehicle: saline with Tween-80
[11] = dose: 100.0 mg/kg/injection, schedule: Q01DX009 (ip), vehicle: saline with Tween-80
[12] = dose: 200.0 mg/kg/injection, schedule: Q01DX009 (ip), vehicle: saline with Tween-80
[13] = dose: 400.0 mg/kg/injection, schedule: Q01DX009 (ip), vehicle: saline with Tween-80
[14] = dose: 400.0 mg/kg/injection, schedule: Q04DX003 (ip), vehicle: saline with Tween-80

Measured: T/C

COc1ccc(Nc2cccc(Cl)c2)c(C(=O)O)c1
inactive: dose: 40.0 mg/kg/injection, schedule: Q01DX009 (ip), vehicle: saline 100 % of control | dose: 75.0 mg/kg/injection, schedule: Q01DX001 (ip), vehicle: saline 98 % of control | dose: 75.0 mg/kg/injection, schedule: Q01DX009 (ip), vehicle: saline 87 % of control | dose: 150.0 mg/kg/injection, schedule: Q01DX001 (ip), vehicle: saline 90 % of control | dose: 150.0 mg/kg/injection, schedule: Q01DX009 (ip), vehicle: saline 87 % of control

CC(=O)OC1=CC(=O)C(OC(C)=O)=C(c2c(C)cc(C)c(Br)c2C)C1=O
inactive: dose: 50.0 mg/kg/injection, schedule: Q01DX001 (ip), vehicle: saline 91 % of control | dose: 100.0 mg/kg/injection, schedule: Q01DX001 (ip), vehicle: saline 95 % of control | dose: 200.0 mg/kg/injection, schedule: Q01DX001 (ip), vehicle: saline 101 % of control

O=C(NCCNC(c1ccccc1)(c1ccccc1)c1ccccc1)C(F)(F)F
inactive: dose: 50.0 mg/kg/injection, schedule: Q01DX009 (ip), vehicle: Klucel (hydroxypropylcellulose) (HPC) 105 % of control | [1] 100 % of control | [2] 91 % of control | [3] 96 % of control | [4] 100 % of control | [5] 93 % of control

CN(C)c1ccc(N=Nc2ccc(S(=O)(=O)O)cc2)cc1
inactive: [6] 92 % of control | [7] 103 % of control | [8] 92 % of control

CCC1COC(Nc2cccc3c2CCCC3)=N1 (stereo not drawn)
inactive: dose: 50.0 mg/kg/injection, schedule: Q04DX003 (ip), vehicle: saline with Tween-80 92 % of control | [9] 92 % of control | [10] 92 % of control

CCCCNC(=O)NS(=O)(=O)c1ccc(CCl)cc1
inactive: dose: 50.0 mg/kg/injection, schedule: Q04DX003 (ip), vehicle: Klucel (hydroxypropylcellulose) (HPC) 98 % of control | [2] 102 % of control | [4] 100 % of control

O=C1C=CC(=O)N1c1ccccc1[N+](=O)[O-]
inactive: dose: 1.5 mg/kg/injection, schedule: Q01DX009 (ip), vehicle: Klucel (hydroxypropylcellulose) (HPC) 97 % of control | dose: 3.0 mg/kg/injection, schedule: Q01DX009 (ip), vehicle: Klucel (hydroxypropylcellulose) (HPC) 103 % of control | dose: 6.0 mg/kg/injection, schedule: Q01DX009 (ip), vehicle: Klucel (hydroxypropylcellulose) (HPC) 94 % of control

CCCCNC1=C(N2CC2)C(=O)C(NCCCC)=C(N2CC2)C1=O
inactive: dose: 1.25 mg/kg/injection, schedule: Q01DX001 (ip), vehicle: saline 105 % of control | dose: 1.25 mg/kg/injection, schedule: Q01DX009 (ip), vehicle: saline 110 % of control and 111 % of control | dose: 1.56 mg/kg/injection, schedule: Q04DX003 (ip), vehicle: Klucel (hydroxypropylcellulose) (HPC) 113 % of control | dose: 2.5 mg/kg/injection, schedule: Q01DX001 (ip), vehicle: saline 100 % of control | dose: 2.5 mg/kg/injection, schedule: Q01DX009 (ip), vehicle: saline 105 % of control and 109 % of control | dose: 3.12 mg/kg/injection, schedule: Q04DX003 (ip), vehicle: Klucel (hydroxypropylcellulose) (HPC) 121 % of control | dose: 5.0 mg/kg/injection, schedule: Q01DX001 (ip), vehicle: saline 98 % of control | dose: 5.0 mg/kg/injection, schedule: Q01DX009 (ip), vehicle: saline 118 % of control | dose: 10.0 mg/kg/injection, schedule: Q01DX001 (ip), vehicle: saline 105 % of control | dose: 10.0 mg/kg/injection, schedule: Q01DX009 (ip), vehicle: saline 114 % of control | dose: 12.5 mg/kg/injection, schedule: Q04DX003 (ip), vehicle: Klucel (hydroxypropylcellulose) (HPC) 110 % of control | dose: 18.0 mg/kg/injection, schedule: Q04DX003 (ip), vehicle: Klucel (hydroxypropylcellulose) (HPC) 112 % of control

N#CC12OC1(C#N)C(=O)c1ccccc1C2=O (stereo not drawn)
inactive: dose: 75.0 mg/kg/injection, schedule: Q01DX001 (ip), vehicle: Klucel (hydroxypropylcellulose) (HPC) 92 % of control

NC(=O)c1ccccc1NC(=O)Nc1ccc([N+](=O)[O-])cc1Cl
inactive: [11] 98 % of control | [9] 95 % of control | [12] 102 % of control | [10] 96 % of control | [13] 98 % of control | [14] 95 % of control

COc1cc(OC)c(-c2nc3ccccc3c(=O)o2)cc1OC
inactive: dose: 75.0 mg/kg/injection, schedule: Q01DX009 (ip), vehicle: Klucel (hydroxypropylcellulose) (HPC) 93 % of control | dose: 150.0 mg/kg/injection, schedule: Q01DX009 (ip), vehicle: Klucel (hydroxypropylcellulose) (HPC) 97 % of control | dose: 300.0 mg/kg/injection, schedule: Q01DX009 (ip), vehicle: Klucel (hydroxypropylcellulose) (HPC) 101 % of control

CC(O)C(=O)[O][Hg][c]1ccccc1 (stereo not drawn)
inactive: dose: 2.5 mg/kg/injection, schedule: Q01DX009 (ip), vehicle: saline with Tween-80 91 % of control | dose: 2.5 mg/kg/injection, schedule: Q04DX003 (ip), vehicle: saline with Tween-80 92 % of control | dose: 5.0 mg/kg/injection, schedule: Q01DX009 (ip), vehicle: saline with Tween-80 94 % of control | dose: 5.0 mg/kg/injection, schedule: Q04DX003 (ip), vehicle: saline with Tween-80 105 % of control | dose: 10.0 mg/kg/injection, schedule: Q01DX009 (ip), vehicle: saline with Tween-80 98 % of control | dose: 10.0 mg/kg/injection, schedule: Q04DX003 (ip), vehicle: saline with Tween-80 108 % of control

C/C(Cc1ccccc1)=N/N(C)C
inactive: [11] 113 % of control | [9] 102 % of control | [12] 104 % of control | [10] 95 % of control | [14] 95 % of control

COc1ccc(C(CCl)(CCl)c2ccc(OC)cc2)cc1
inactive: dose: 100.0 mg/kg/injection, schedule: Q01DX009 (ip), vehicle: gum acacia 110 % of control | dose: 100.0 mg/kg/injection, schedule: Q04DX003 (ip), vehicle: gum acacia 92 % of control | dose: 200.0 mg/kg/injection, schedule: Q01DX009 (ip), vehicle: gum acacia 98 % of control | dose: 200.0 mg/kg/injection, schedule: Q04DX003 (ip), vehicle: gum acacia 101 % of control | dose: 400.0 mg/kg/injection, schedule: Q01DX009 (ip), vehicle: gum acacia 93 % of control | dose: 400.0 mg/kg/injection, schedule: Q04DX003 (ip), vehicle: gum acacia 103 % of control

CC(C)N(C(=O)c1ccc(C(=O)N(c2ccccc2)C(C)C)cc1)c1ccccc1
inactive: [11] 92 % of control | [9] 100 % of control | [12] 90 % of control | [10] 94 % of control | [13] 86 % of control | [14] 87 % of control

CCOC(=O)c1ccc(N=[N+]([O-])c2ccc(C(=O)OCC)cc2)cc1
inactive: [6] 96 % of control | [7] 96 % of control | [8] 100 % of control

Cc1nccnc1S(=O)(=O)c1ccc2ccccc2c1
inactive: dose: 100.0 mg/kg/injection, schedule: Q01DX001 (ip), vehicle: Klucel (hydroxypropylcellulose) (HPC) 101 % of control | dose: 200.0 mg/kg/injection, schedule: Q01DX001 (ip), vehicle: Klucel (hydroxypropylcellulose) (HPC) 97 % of control

CCc1ccc(N=Nc2c(F)c(F)c(NC(C)=O)c(F)c2F)cc1
inactive: dose: 100.0 mg/kg/injection, schedule: Q01DX001 (ip), vehicle: carboxymethylcellulose (CMC) 102 % of control | dose: 200.0 mg/kg/injection, schedule: Q01DX001 (ip), vehicle: carboxymethylcellulose (CMC) 91 % of control | dose: 400.0 mg/kg/injection, schedule: Q01DX001 (ip), vehicle: carboxymethylcellulose (CMC) 91 % of control

C=CCc1cnc(N)[nH]c1=O
inactive: [9] 103 % of control | [10] 97 % of control | [14] 100 % of control

Cc1cc(CCCC(=O)O)c(C)s1
inactive: [9] 101 % of control | [10] 104 % of control | [14] 101 % of control

O=S1(=O)C=C(Br)c2ccccc21
inactive: [1] 101 % of control | [2] 91 % of control | [3] 91 % of control | [4] 96 % of control | [5] 90 % of control

CC(=O)CP(=O)(O)O
inactive: dose: 100.0 mg/kg/injection, schedule: Q04DX002 (ip), vehicle: saline 97 % of control | dose: 200.0 mg/kg/injection, schedule: Q04DX002 (ip), vehicle: saline 94 % of control | dose: 400.0 mg/kg/injection, schedule: Q04DX002 (ip), vehicle: saline 94 % of control
